Measured values reported in ChEMBL document CHEMBL1201862, “PubChem BioAssay data set” (2004).
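Method: 48-hour compound exposure of cells in 96-well plates, five concentrations, linear interpolation of endpoints. GI50 = concentration required for 50% inhibition of growth.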 Activity calls are given as the source filed them. Cut-off read from the data, not from the text of the source: active = GI50 up to about 1.1 µM and inactive = higher.

Key:
Assay in all cases: NCI-60 cell line screen, 48 h
BT-549 = system: BT-549
A498 = system: A498
CCRF-CEM = system: CCRF-CEM
NCI-H460 = system: NCI-H460
CAKI-1 = system: CAKI-1
UO-31 = system: UO-31
SF-268 = system: SF-268
HCC 2998 = system: HCC 2998
TK-10 = system: TK-10
OVCAR-4 = system: OVCAR-4
DU-145 = system: DU-145
Hs-578T = system: Hs-578T
SR = system: SR
NCI-H226 = system: NCI-H226
SNB-75 = system: SNB-75
OVCAR-3 = system: OVCAR-3
NCI/ADR-RES = system: NCI/ADR-RES
Malme-3M = system: Malme-3M
SF-539 = system: SF-539
HOP-92 = system: HOP-92

Measured: GI50

CCOC(=O)c1oc2ccc([N+](=O)[O-])c3c2c1CCC3
inactive: BT-549 46.5 µM | A498 32.7 µM | CCRF-CEM > 95.1 µM | NCI-H460 > 100 µM | CAKI-1 61.4 µM | UO-31 66.7 µM | SF-268 27.2 µM | HCC 2998 > 87.9 µM | TK-10 47.6 µM | OVCAR-4 > 100 µM | DU-145 > 100 µM | Hs-578T 29.2 µM | SR > 100 µM | NCI-H226 > 88.7 µM | SNB-75 14 µM | OVCAR-3 > 100 µM | NCI/ADR-RES 64.9 µM | Malme-3M > 63.4 µM | SF-539 19 µM | HOP-92 17.4 µM

Clc1ccc(-c2nn3c(CCCCCCCCc4nnc5sc(-c6ccc(Cl)cc6)nn45)nnc3s2)cc1
inactive: BT-549 24.8 µM | A498 24.8 µM | CCRF-CEM 11.8 µM | NCI-H460 26.9 µM | CAKI-1 16.3 µM | UO-31 12.6 µM | SF-268 23.2 µM | HCC 2998 48.3 µM | TK-10 23.4 µM | OVCAR-4 8.85 µM | DU-145 11.7 µM | Hs-578T 27.2 µM | SR 17.1 µM | NCI-H226 25.6 µM | SNB-75 19.9 µM | OVCAR-3 19.8 µM | NCI/ADR-RES 21 µM | Malme-3M 45.2 µM | SF-539 19.9 µM | HOP-92 31 µM

CC/C(=N/O)c1ccc(Br)s1
inactive: BT-549 > 100 µM | A498 > 100 µM | CCRF-CEM 41.1 µM | NCI-H460 > 100 µM | CAKI-1 > 100 µM | UO-31 58.6 µM | SF-268 > 100 µM | HCC 2998 > 100 µM | TK-10 > 100 µM | OVCAR-4 > 100 µM | DU-145 > 100 µM | Hs-578T 95.1 µM | SR 40.3 µM | NCI-H226 > 100 µM | SNB-75 67.8 µM | OVCAR-3 > 100 µM | NCI/ADR-RES > 100 µM | Malme-3M > 100 µM | SF-539 27.1 µM | HOP-92 40.3 µM

O=C1SC(SCc2ccccc2)=NC12CC2c1ccccc1 (stereo not given)
inactive: BT-549 20.2 µM | A498 25.5 µM | CCRF-CEM 2.93 µM | NCI-H460 18.7 µM | CAKI-1 20 µM | UO-31 19.5 µM | SF-268 27 µM | HCC 2998 7.62 µM | TK-10 25.6 µM | OVCAR-4 16 µM | DU-145 29 µM | Hs-578T 24.3 µM | SR 21.3 µM | NCI-H226 23.6 µM | SNB-75 29.2 µM | OVCAR-3 27.7 µM | NCI/ADR-RES 23.9 µM | Malme-3M 17.7 µM | SF-539 20.7 µM | HOP-92 17.1 µM

COc1cc(C2SCC(=O)N2c2ccc(Cl)c(Cl)c2)cc(OC)c1OC (stereo not given)
inactive: BT-549 44.7 µM | A498 > 100 µM | CCRF-CEM 14.8 µM | NCI-H460 30.2 µM | CAKI-1 27.5 µM | UO-31 18.9 µM | SF-268 > 100 µM | HCC 2998 > 56.9 µM | TK-10 > 100 µM | OVCAR-4 27.4 µM | DU-145 > 38.5 µM | Hs-578T > 100 µM | SR 9.75 µM | NCI-H226 > 37 µM | SNB-75 76.6 µM | OVCAR-3 34.1 µM | NCI/ADR-RES 37.2 µM | Malme-3M > 100 µM | SF-539 70.5 µM | HOP-92 80.9 µM
